From patent publication US20240294543A1, “CYCLOHEPTA-THIENO-DIAZEPINE DERIVATIVES AS GABA A GAMMA1 PAM” (Hoffmann-La Roche Inc., priority 2021, published 2024)

Columns and labels:
[1] = target: human GABAA α5β2γ1 receptor (Homo sapiens (Human), UniProt P31644+Q8N1C3); assay: Radioligand binding assay, competition for [3H]RO7239181, γ1-containing GABAA subtypes
h-GABA-A α2β2γ1 = h-GABA-A α2β2γ1 (Homo sapiens (Human), UniProt P47869+Q8N1C3); assay: Two-electrode voltage clamp electrophysiology in Xenopus oocytes expressing GABAA receptors; format: cell-based; details: for Efficacy (GABA) %: % modulation of GABA EC20 = 100*(Fold increase−1), compound at about 30-fold its Ki α2β2γ1; for Fold increase h-GABA-A α2β2γ1 oocyte @ 30-fold Ki: Xenopus oocytes, GABA EC20, compound at about 30-fold its Ki α2β2γ1
How it was run: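 Xenopus oocytes injected with receptor subunit RNA and recorded 3–5 days later by two-electrode voltage clamp at −80 mV, room temperature, pH 7.4. GABA applied at EC20 for 1.5 min, with and without test compound. Efficacy = extremum of the point-by-point ratio of the two responses, expressed as % modulation of GABA EC20; ≥3 oocytes per concentration.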

Row | Compound | Ki [1] | Efficacy (GABA) % (h-GABA-A α2β2γ1) | Fold increase h-GABA-A α2β2γ1 oocyte @ 30-fold Ki (h-GABA-A α2β2γ1)
1 | CCc1nc2n(n1)-c1sc3c(c1C(c1c(F)cccc1F)=N[C@H]2C)COC[C@H](C)O3 [Example 49, (7S,15S)-9-(2,6-difluorophenyl)-4-ethyl-7,15-dimethyl-13,16-dioxa-18-thia-2,3,5,8-tetrazatetracyclo[8.8.0.02,6.011,17]octadeca-1(10),3,5,8,11(17)-pentaene] | 3.32 nM | 131% | 2.31
2 | Cc1nnc2n1-c1sc3c(c1C(c1c(F)cccc1F)=N[C@H]2C)COCCC3 [Example 52, (7S)-9-(2,6-difluorophenyl)-3,7-dimethyl-13-oxa-18-thia-2,4,5,8-tetrazatetracyclo[8.8.0.02,6.011,17]octadeca-1(10),3,5,8,11(17)-pentaene] | 7.6 nM | 170% | 2.70
3 | C[C@@H]1N=C(c2c(F)cccc2F)c2c(sc3c2COC[C@H](C)O3)-n2nc(C(=O)NCCO)nc21 [Example 53, (7S,15S)-9-(2,6-difluorophenyl)-N-(2-hydroxyethyl)-7,15-dimethyl-13,16-dioxa-18-thia-2,3,5,8-tetrazatetracyclo[8.8.0.02,6.011,17]octadeca-1(10),3,5,8,11(17)-pentaene-4-carboxamide] | 6.2 nM | 237% | 3.37
4 | Cc1nnc2n1-c1sc3c(c1C(c1c(F)cccc1F)=N[C@H]2C)CC[C@@H](F)CO3 [Example 56, (7S,14R)-9-(2,6-difluorophenyl)-14-fluoro-3,7-dimethyl-16-oxa-18-thia-2,4,5,8-tetrazatetracyclo[8.8.0.02,6.011,17]octadeca-1(10),3,5,8,11(17)-pentaene] | 6.9 nM | 147% | 2.47
5 | Cc1nc2n(n1)-c1sc3c(c1C(c1c(F)cccc1F)=N[C@H]2C)COCCC3 [Example 57, (7S)-9-(2,6-difluorophenyl)-4,7-dimethyl-13-oxa-18-thia-2,3,5,8-tetrazatetracyclo[8.8.0.02,6.011,17]octadeca-1(10),3,5,8,11(17)-pentaene] | 1.53 nM | 73% | 1.73
6 | Cc1nnc2n1-c1sc3c(c1C(c1c(F)cccc1Cl)=N[C@H]2C)COCCC3 [Example 61, (7S)-9-(2-chloro-6-fluoro-phenyl)-3,7-dimethyl-13-oxa-18-thia-2,4,5,8-tetrazatetracyclo[8.8.0.02,6.011,17]octadeca-1(10),3,5,8,11(17)-pentaene] | 4.98 nM | 165% | 2.65
7 | C[C@@H]1N=C(c2c(F)cccc2F)c2c(sc3c2COCCC3)-n2nc(C(=O)NCC3(O)CC3)nc21 [Example 62, (7S)-9-(2,6-difluorophenyl)-N-[(1-hydroxycyclopropyl)methyl]-7-methyl-13-oxa-18-thia-2,3,5,8-tetrazatetracyclo[8.8.0.02,6.011,17]octadeca-1(10),3,5,8,11(17)-pentaene-4-carboxamide] | 5.9 nM | 179% | 2.79
8 | C[C@@H]1N=C(c2c(F)cccc2F)c2c(sc3c2COCCC3)-n2nc(C(=O)N[C@H]3C[C@H](O)C3)nc21 [Example 63, (7S)-9-(2,6-difluorophenyl)-N-(trans-3-hydroxycyclobutyl)-7-methyl-13-oxa-18-thia-2,3,5,8-tetrazatetracyclo[8.8.0.02,6.011,17]octadeca-1(10),3,5,8,11(17)-pentaene-4-carboxamide] | 8.1 nM | 169% | 2.69
9 | C[C@@H]1N=C(c2c(F)cccc2F)c2c(sc3c2COCCC3)-n2nc(C(=O)N[C@H]3C[C@@H](O)C3)nc21 [Example 64, (7S)-9-(2,6-difluorophenyl)-N-(cis-3-hydroxycyclobutyl)-7-methyl-13-oxa-18-thia-2,3,5,8-tetrazatetracyclo[8.8.0.02,6.011,17]octadeca-1(10),3,5,8,11(17)-pentaene-4-carboxamide] | 6.5 nM | 164% | 2.64
10 | C[C@@H]1N=C(c2c(F)cccc2F)c2c(sc3c2COCCO3)-n2cc(C(=O)NCC3(O)CC3)nc21 [Example 65, (7S)-9-(2,6-difluorophenyl)-N-[(1-hydroxycyclopropyl)methyl]-7-methyl-13,16-dioxa-18-thia-2,5,8-triazatetracyclo[8.8.0.02,6.011,17]octadeca-1(10),3,5,8,11(17)-pentaene-4-carboxamide] | 1.69 nM | 169% | 2.69
11 | C[C@@H]1N=C(c2c(F)cccc2F)c2c(sc3c2COCCC3)-n2cc(C(=O)NCCO)nc21 [Example 66, (7S)-9-(2,6-difluorophenyl)-N-(2-hydroxyethyl)-7-methyl-13-oxa-18-thia-2,5,8-triazatetracyclo[8.8.0.02,6.011,17]octadeca-1(10),3,5,8,11(17)-pentaene-4-carboxamide] | 2.94 nM | 153% | 2.53
12 | C[C@@H]1N=C(c2c(F)cccc2F)c2c(sc3c2COCCC3)-n2cc(C(=O)NCC(C)(C)O)nc21 [Example 67, (7S)-9-(2,6-difluorophenyl)-N-(2-hydroxy-2-methyl-propyl)-7-methyl-13-oxa-18-thia-2,5,8-triazatetracyclo[8.8.0.02,6.011,17]octadeca-1(10),3,5,8,11(17)-pentaene-4-carboxamide] | 7.4 nM | 164% | 2.64
13 | C[C@@H]1N=C(c2c(F)cccc2F)c2c(sc3c2COCCC3)-n2cc(C(=O)NCC3(O)CC3)nc21 [Example 68, (7S)-9-(2,6-difluorophenyl)-N-[(1-hydroxycyclopropyl)methyl]-7-methyl-13-oxa-18-thia-2,5,8-triazatetracyclo[8.8.0.02,6.011,17]octadeca-1(10),3,5,8,11(17)-pentaene-4-carboxamide] | 2.95 nM | 159% | 2.59
14 | C[C@@H]1N=C(c2c(F)cccc2F)c2c(sc3c2COCCC3)-n2nc(C(=O)NC[C@@](C)(O)C(F)(F)F)nc21 [Example 70, (7S)-9-(2,6-difluorophenyl)-7-methyl-N-[(2R)-3,3,3-trifluoro-2-hydroxy-2-methyl-propyl]-13-oxa-18-thia-2,3,5,8-tetrazatetracyclo[8.8.0.02,6.011,17]octadeca-1(10),3,5,8,11(17)-pentaene-4-carboxamide] | 5.8 nM | 148% | 2.48
